According to US8247211B2, “Glycopeptide antibiotics” (American Cyanamid Company, priority 2001, dated 2012):
Values after ≈ are worked out from the molar mass of the structure shown.

Columns and labels:
Assay in all cases: In vitro antibacterial evaluation: minimum inhibitory concentration (MIC), broth dilution method
Type in all cases: cell-based
Enterococcus sp. = settings: broth dilution, 5×10^5 CFU/mL, 18 hours at 35° C.
Method: (§1) The minimum inhibitory concentration (MIC), the lowest concentration of the antibiotic which inhibits growth of the test organism, is determined by the broth dilution method using Muller-Hinton II […] (Baltimore Biological Laboratories) following the recommendations of the National Committee for Clinical Laboratory Standards [Methods for dilution antimicrobial susceptibility tests for bacteria that grow aerobically, approved standard M7-A2, National Committee for Clinical Laboratory Standards, Villanova, Pa].
(§2) An inoculum level of 5×10^5 CFU/mL, and a range of antibiotic concentrations (64-0.06 μg/mL) is used. […] The test organisms include a spectrum of Gram-positive bacteria comprised of Staphylococcus sp., Streptococcus sp. and Enterococcus sp. These organisms include recent clinical isolates that are resistant to methicillin, penicillin and/or vancomycin.

Streptococcus sp. = settings: broth dilution, 5×10^5 CFU/mL, 18 hours at 35° C.
Method: as §1, §2

Escherichia coli = settings: 5×10^5 CFU/mL, 18 hours at 35° C.
Method: as §1, §2

Staphylococcus sp. = settings: for MIC Staphylococcus aureus (ATCC 29213): strain ATCC 29213; for MIC Staphylococcus aureus (GC 1131): strain GC 1131; for MIC Staphylococcus aureus (GC 3051): strain GC 3051; for MIC Staphylococcus aureus (GC 3053): strain GC 3053; for MIC Staphylococcus aureus (GC 4541): strain GC 4541; for MIC Staphylococcus aureus (GC 4542): strain GC 4542; for MIC Staphylococcus aureus (GC 4544): strain GC 4544; for MIC Staphylococcus aureus (GC 4545): strain GC 4545
Method: as §1, §2

[1] = broth dilution, 5×10^5 CFU/mL, 18 hours at 35° C.
[2] = broth dilution, 18 hours at 35° C.

MIC Enterococccus avium (GC 4558) (Enterococcus sp.): 8 µg/mL (≈ 5.59 µM) | MIC Enterococccus faecalis (ATCC 29212) (Enterococcus sp.): 8 µg/mL (≈ 5.59 µM) | MIC Enterococccus faecalis (GC 2691) (Enterococcus sp.): 8 µg/mL (≈ 5.59 µM) | MIC Enterococccus faecalis (GC 3059) (Enterococcus sp.): 8 µg/mL (≈ 5.59 µM) | MIC Enterococccus faecalis (GC 4552) (Enterococcus sp.): 8 µg/mL (≈ 5.59 µM) | MIC Enterococccus faecalis (GC 4553) (Enterococcus sp.): 8 µg/mL (≈ 5.59 µM) | MIC Enterococccus faecalis (GC 4554) (Enterococcus sp.): 8 µg/mL (≈ 5.59 µM) | MIC Enterococccus faecalis (GC 6189) (Enterococcus sp.): 8 µg/mL (≈ 5.59 µM) | MIC Enterococccus faecium (GC 2243) (Enterococcus sp.): 8 µg/mL (≈ 5.59 µM) | MIC Enterococccus faecium (GC 4556) (Enterococcus sp.): 8 µg/mL (≈ 5.59 µM) | MIC Enterococccus faecium (GC 4557) (Enterococcus sp.): 8 µg/mL (≈ 5.59 µM) | MIC Enterococcus faecalis (GC 2242) (Enterococcus sp.): 8 µg/mL (≈ 5.59 µM) | MIC Streptococcus agalactiae (GC 4564) (Streptococcus sp.): 1 µg/mL (≈ 0.699 µM) | MIC Streptococcus pneumoniae (GC 1894) (Streptococcus sp.): <0.06 µg/mL | MIC Streptococcus pneumoniae (GC 4565) (Streptococcus sp.): <0.06 µg/mL | MIC Streptococcus pneumonine (ATCC 6301) (Streptococcus sp.): <0.06 µg/mL | MIC Streptococcus pyogenes (GC 4563) (Streptococcus sp.): 0.12 µg/mL (≈ 0.0838 µM) | MIC Escherichia coli (ATCC 25922) (Escherichia coli): 64 µg/mL (≈ 44.7 µM) | MIC Escherichia coli (GC 4559) (Escherichia coli): 64 µg/mL (≈ 44.7 µM) | MIC Escherichia coli (GC 4560) (Escherichia coli): 8 µg/mL (≈ 5.59 µM) | MIC Coagulase Negative Staphylococcus (GC 4547) (Staphylococcus sp.; [1]): 8 µg/mL (≈ 5.59 µM) | MIC Coagulase Negative Staphylococcus (GC 4548) (Staphylococcus sp.; [1]): 8 µg/mL (≈ 5.59 µM) | MIC Coagulase Negative Staphylococcus (GC 4549) (Staphylococcus sp.; [1]): 8 µg/mL (≈ 5.59 µM) | MIC Coagulase Negative Staphylococcus (GC 4551) (Staphylococcus sp.; [1]): 8 µg/mL (≈ 5.59 µM) | MIC Coagulase Negative Staphylococcus (GC 6257) (Staphylococcus sp.; [1]): 8 µg/mL (≈ 5.59 µM) | MIC Staphylococcus aureus-SMITH (GC 4543) (Staphylococcus sp.; [1]): 8 µg/mL (≈ 5.59 µM) | MIC Staphylococcus aureus (ATCC 29213) (Staphylococcus sp.): 8 µg/mL (≈ 5.59 µM) | MIC Staphylococcus aureus (ATCC 29213) (Staphylococcus sp.; [2]): 8 µg/mL (≈ 5.59 µM) | MIC Staphylococcus aureus (GC 1131) (Staphylococcus sp.): 8 µg/mL (≈ 5.59 µM) | MIC Staphylococcus aureus (GC 1131) (Staphylococcus sp.; [2]): 8 µg/mL (≈ 5.59 µM) | MIC Staphylococcus aureus (GC 3051) (Staphylococcus sp.): 8 µg/mL (≈ 5.59 µM) | MIC Staphylococcus aureus (GC 3051) (Staphylococcus sp.; [2]): 8 µg/mL (≈ 5.59 µM) | MIC Staphylococcus aureus (GC 3053) (Staphylococcus sp.): 8 µg/mL (≈ 5.59 µM) | MIC Staphylococcus aureus (GC 3053) (Staphylococcus sp.; [2]): 8 µg/mL (≈ 5.59 µM) | MIC Staphylococcus aureus (GC 4541) (Staphylococcus sp.): 8 µg/mL (≈ 5.59 µM) | MIC Staphylococcus aureus (GC 4541) (Staphylococcus sp.; [2]): 8 µg/mL (≈ 5.59 µM) | MIC Staphylococcus aureus (GC 4542) (Staphylococcus sp.): 8 µg/mL (≈ 5.59 µM) | MIC Staphylococcus aureus (GC 4542) (Staphylococcus sp.; [2]): 8 µg/mL (≈ 5.59 µM) | MIC Staphylococcus aureus-SMITH (GC 4543) (Staphylococcus sp.; strain GC 4543, broth dilution, 18 hours at 35° C.): 8 µg/mL (≈ 5.59 µM) | MIC Staphylococcus aureus (GC 4544) (Staphylococcus sp.): 8 µg/mL (≈ 5.59 µM) | MIC Staphylococcus aureus (GC 4544) (Staphylococcus sp.; [2]): 8 µg/mL (≈ 5.59 µM) | MIC Staphylococcus aureus (GC 4545) (Staphylococcus sp.): 8 µg/mL (≈ 5.59 µM) | MIC Staphylococcus aureus (GC 4545) (Staphylococcus sp.; [2]): 8 µg/mL (≈ 5.59 µM) | MIC Coagulase Negative Staphylococcus (GC 4547) (Staphylococcus sp.; strain GC 4547, broth dilution, 18 hours at 35° C.): 8 µg/mL (≈ 5.59 µM) | MIC Coagulase Negative Staphylococcus (GC 4548) (Staphylococcus sp.; strain GC 4548, broth dilution, 18 hours at 35° C.): 8 µg/mL (≈ 5.59 µM) | MIC Coagulase Negative Staphylococcus (GC 4549) (Staphylococcus sp.; strain GC 4549, broth dilution, 18 hours at 35° C.): 8 µg/mL (≈ 5.59 µM) | MIC Coagulase Negative Staphylococcus (GC 4551) (Staphylococcus sp.; strain GC 4551, broth dilution, 18 hours at 35° C.): 8 µg/mL (≈ 5.59 µM) | MIC Coagulase Negative Staphylococcus (GC 6257) (Staphylococcus sp.; strain GC 6257, broth dilution, 18 hours at 35° C.): 8 µg/mL (≈ 5.59 µM)
Structure (SMILES): CC(C)=CCCC(C)CC1OCC2OC(OC3C(CO)OC(Oc4ccc(CC5NC(=O)C(C(C)c6ccccc6)NC(=O)CNC(=O)C(CO)NC(=O)C(C(O)C6CNC(=N)N6C6OC(CO)C(O)C(O)C6O)NC(=O)C(C(O)C6CNC(=N)N6)NC5=O)cc4)C(O)C3O)C(O)C(O)C2O1 (stereo not drawn) [Example 126, Cyclo[glycyl-β-methylphenylalanyl-O-[4-O-[4,6-O-[3,7-dimethyloct-6-en-1-ylidene)hexopyranosyl]hexopyranosyl]tyrosyl-3-(2-iminoimidazolidin-4-yl)seryl-3-(3-hexopyranosyl-2-iminoimidazolidin-4-yl)serylseryl]]
MIC Staphylococcus haemolyticus (GC 4546) (Staphylococcus sp.; [1]): 8 µg/mL (≈ 5.59 µM) | MIC Staphylococcus haemolyticus (GC 4546) (Staphylococcus sp.; strain GC 4546, broth dilution, 18 hours at 35° C.): 8 µg/mL (≈ 5.59 µM)
